Patent US20230085307A1, “PYRIDAZINONE COMPOUND AND HERBICIDE” (NISSAN CHEMICAL CORPORATION, priority 2019, published 2023)

Legend:
wild oat [1] = test: Test Example 4: herbicidal effect by soil treatment (Table 19, symbol I); type: in vivo, wild oat (Avena fatua)
Method in brief: (§1)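 Step 1: sow seeds in sterilized diluvial soil, cover ~1.5 cm. Step 2: spray diluted emulsion onto soil surface at predetermined rate. Step 3: greenhouse, 25–30° C, three weeks. Step 4: grade effect on each plant by earlier criteria.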

blackgrass [2] = test: Test Example 4: herbicidal effect by soil treatment (Table 19, symbol J); type: in vivo, blackgrass (Alopecurus myosuroides)
Method in brief: as §1

Italian ryegrass [3] = test: Test Example 4: herbicidal effect by soil treatment (Table 19, symbol K); type: in vivo, Italian ryegrass (Lolium multiflorum)
Method in brief: as §1

lambsquarters [4] = test: Test Example 5: herbicidal effect by foliage application, plastic box (Table 20, symbol O); type: in vivo, lambsquarters (Chenopodium album); settings: foliage application
Method in brief: (§2)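 Foliar spray test: emulsion formulation diluted in water to a set application rate, sprayed onto 14-day-old plants raised in diluvial soil at 25° C to 30° C under glass. Both herbicidal effect and crop effect rated visually three weeks later.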

green foxtail [5] = test: Test Example 4: herbicidal effect by soil treatment (Table 19, symbol G); type: in vivo, green foxtail (Setaria viridis)
Method in brief: as §1

redroot pigweed [6] = test: Test Example 4: herbicidal effect by soil treatment (Table 19, symbol N); type: in vivo, redroot pigweed (Amaranthus retroflexus)
Method in brief: as §1

green foxtail [7] = test: Test Example 5: herbicidal effect by foliage application, plastic box (Table 20, symbol G); type: in vivo, green foxtail (Setaria viridis); settings: foliage application
Method in brief: as §2

windgrass [8] = test: Test Example 4: herbicidal effect by soil treatment (Table 19, symbol L); type: in vivo, windgrass (Apera spica-venti)
Method in brief: as §1

barnyard grass [9] = test: Test Example 5: herbicidal effect by foliage application, plastic box (Table 20, symbol H); type: in vivo, barnyard grass (Echinochloa crus-galli); settings: foliage application
Method in brief: as §2

Chinese sprangletop = test: Test Example 3: herbicidal effect by foliage application, Wagner pot (Table 18, symbol D); type: in vivo, chinese sprangletop (Leptochloa chinensis); settings: 320 g/ha
Method in brief: (§3)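 Plants were sown in alluvial soil held under 0.1–0.5 cm standing water and grown 14 days in a greenhouse at 25–30 °C. An emulsifiable formulation, water-diluted to the set dose, was then sprayed onto the foliage, and effects were scored three weeks later using previously defined criteria.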

barnyard grass [10] = test: Test Example 4: herbicidal effect by soil treatment (Table 19, symbol H); type: in vivo, barnyard grass (Echinochloa crus-galli)
Method in brief: as §1

rice flat sedge = test: Test Example 3: herbicidal effect by foliage application, Wagner pot (Table 18, symbol E); type: in vivo, rice flat sedge (Cyperus iria); settings: 320 g/ha
Method in brief: as §3

wild oat [11] = test: Test Example 5: herbicidal effect by foliage application, plastic box (Table 20, symbol I); type: in vivo, wild oat (Avena fatua); settings: foliage application
Method in brief: as §2

lambsquarters [12] = test: Test Example 4: herbicidal effect by soil treatment (Table 19, symbol O); type: in vivo, lambsquarters (Chenopodium album)
Method in brief: as §1

windgrass [13] = test: Test Example 5: herbicidal effect by foliage application, plastic box (Table 20, symbol L); type: in vivo, windgrass (Apera spica-venti); settings: foliage application
Method in brief: as §2

false cleavers [14] = test: Test Example 5: herbicidal effect by foliage application, plastic box (Table 20, symbol Q); type: in vivo, false cleavers (Galium spurium); settings: foliage application
Method in brief: as §2

southern crabgrass [15] = test: Test Example 5: herbicidal effect by foliage application, plastic box (Table 20, symbol F); type: in vivo, southern crabgrass (Digitaria ciliaris); settings: foliage application
Method in brief: as §2

southern crabgrass [16] = test: Test Example 4: herbicidal effect by soil treatment (Table 19, symbol F); type: in vivo, southern crabgrass (Digitaria ciliaris)
Method in brief: as §1

blackgrass [17] = test: Test Example 5: herbicidal effect by foliage application, plastic box (Table 20, symbol J); type: in vivo, blackgrass (Alopecurus myosuroides); settings: foliage application
Method in brief: as §2

chickweed [18] = test: Test Example 4: herbicidal effect by soil treatment (Table 19, symbol P); type: in vivo, common chickweed (Stellaria media)
Method in brief: as §1

false cleavers [19] = test: Test Example 4: herbicidal effect by soil treatment (Table 19, symbol Q); type: in vivo, false cleavers (Galium spurium)
Method in brief: as §1

velvetleaf [20] = test: Test Example 4: herbicidal effect by soil treatment (Table 19, symbol M); type: in vivo, velvetleaf (Abutilon theophrasti)
Method in brief: as §1

Italian ryegrass [21] = test: Test Example 5: herbicidal effect by foliage application, plastic box (Table 20, symbol K); type: in vivo, Italian ryegrass (Lolium multiflorum); settings: foliage application
Method in brief: as §2

barnyard grass [22] = test: Test Example 3: herbicidal effect by foliage application, Wagner pot (Table 18, symbol H); type: in vivo, barnyard grass (Echinochloa crus-galli); settings: 320 g/ha
Method in brief: as §3

velvetleaf [23] = test: Test Example 5: herbicidal effect by foliage application, plastic box (Table 20, symbol M); type: in vivo, velvetleaf (Abutilon theophrasti); settings: foliage application
Method in brief: as §2

persian speedwell [24] = test: Test Example 5: herbicidal effect by foliage application, plastic box (Table 20, symbol R); type: in vivo, Persian speedwell (Veronica persica); settings: foliage application
Method in brief: as §2

redroot pigweed [25] = test: Test Example 5: herbicidal effect by foliage application, plastic box (Table 20, symbol N); type: in vivo, redroot pigweed (Amaranthus retroflexus); settings: foliage application
Method in brief: as §2

chickweed [26] = test: Test Example 5: herbicidal effect by foliage application, plastic box (Table 20, symbol P); type: in vivo, common chickweed (Stellaria media); settings: foliage application
Method in brief: as §2

persian speedwell [27] = test: Test Example 4: herbicidal effect by soil treatment (Table 19, symbol R); type: in vivo, Persian speedwell (Veronica persica)
Method in brief: as §1

[28] = amount of applied herbicide 320 g/ha
[29] = AAH 320 g/ha, three weeks after application
[30] = 320 g/ha, evaluated three weeks after application

Cc1nn(C)c(=O)c(-c2c(-c3cccc4c3OCC4)sc3ccccc23)c1O [1-103]
herbicidal effect rating, I: wild oat (wild oat [1]; [28]): 0 (Herbicidal rate of 5% or less (almost no effect)) | herbicidal effect rating, J: blackgrass (blackgrass [2]; [28]): 0 (Herbicidal rate of 5% or less (almost no effect)) | herbicidal effect rating, K: Italian ryegrass (Italian ryegrass [3]; [28]): 0 (Herbicidal rate of 5% or less (almost no effect)) | O: lambsquarters, herbicidal effect (lambsquarters [4]; [29]): 3 (Herbicidal rate of 40% or more and less than 70%) | herbicidal effect rating, G: green foxtail (green foxtail [5]; [28]): 3 (Herbicidal rate of 40% or more and less than 70%) | herbicidal effect rating, N: redroot pigweed (redroot pigweed [6]; [28]): 3 (Herbicidal rate of 40% or more and less than 70%) | G: green foxtail, herbicidal effect (green foxtail [7]; [29]): 3 (Herbicidal rate of 40% or more and less than 70%) | herbicidal effect rating, L: windgrass (windgrass [8]; [28]): 0 (Herbicidal rate of 5% or less (almost no effect)) | H: barnyard grass, herbicidal effect (barnyard grass [9]; [29]): 0 (Herbicidal rate of 5% or less (almost no effect)) | herbicidal effect on D (Chinese sprangletop), rating 0-5 (Chinese sprangletop): 4 (Herbicidal rate of 70% or more and less than 90%) | herbicidal effect rating, H: barnyard grass (barnyard grass [10]; [28]): 2 (Herbicidal rate of 20% or more and less than 40%) | herbicidal effect on E (rice flat sedge), rating 0-5 (rice flat sedge): 3 (Herbicidal rate of 40% or more and less than 70%) | I: wild oat, herbicidal effect (wild oat [11]; [29]): 0 (Herbicidal rate of 5% or less (almost no effect)) | herbicidal effect rating, O: lambsquarters (lambsquarters [12]; [28]): 3 (Herbicidal rate of 40% or more and less than 70%) | L: windgrass, herbicidal effect (windgrass [13]; [29]): 0 (Herbicidal rate of 5% or less (almost no effect)) | Q: false cleavers, herbicidal effect (false cleavers [14]; [29]): 4 (Herbicidal rate of 70% or more and less than 90%) | F: southern crabgrass, herbicidal effect (southern crabgrass [15]; [29]): 3 (Herbicidal rate of 40% or more and less than 70%) | herbicidal effect rating, F: southern crabgrass (southern crabgrass [16]; [28]): 2 (Herbicidal rate of 20% or more and less than 40%) | J: blackgrass, herbicidal effect (blackgrass [17]; [29]): 3 (Herbicidal rate of 40% or more and less than 70%) | herbicidal effect rating, P: chickweed (chickweed [18]; [28]): 1 (Herbicidal rate of 5% or more and less than 20%) | herbicidal effect rating, Q: false cleavers (false cleavers [19]; [28]): 0 (Herbicidal rate of 5% or less (almost no effect)) | herbicidal effect rating, M: velvetleaf (velvetleaf [20]; [28]): 0 (Herbicidal rate of 5% or less (almost no effect)) | K: Italian ryegrass, herbicidal effect (Italian ryegrass [21]; [29]): 3 (Herbicidal rate of 40% or more and less than 70%) | herbicidal effect on H (barnyard grass), rating 0-5 (barnyard grass [22]): 3 (Herbicidal rate of 40% or more and less than 70%) | M: velvetleaf, herbicidal effect (velvetleaf [23]; [29]): 4 (Herbicidal rate of 70% or more and less than 90%) | R: persian speedwell, herbicidal effect (persian speedwell [24]; [29]): 5 (Herbicidal rate of 90% or more (almost completely withered)) | N: redroot pigweed, herbicidal effect (redroot pigweed [25]; [29]): 3 (Herbicidal rate of 40% or more and less than 70%) | P: chickweed, herbicidal effect (chickweed [26]; [29]): 5 (Herbicidal rate of 90% or more (almost completely withered)) | herbicidal effect rating, R: persian speedwell (persian speedwell [27]; [28]): 2 (Herbicidal rate of 20% or more and less than 40%)

CCCC(=O)Oc1c(C)nn(C)c(=O)c1-c1c(-c2ccc(F)cc2)sc2ccc(Cl)cc12 [2-098]
herbicidal effect rating, I: wild oat (wild oat [1]; 320 g/ha): 2 (Herbicidal rate of 20% or more and less than 40%) | herbicidal effect rating, J: blackgrass (blackgrass [2]; 320 g/ha): 0 (Herbicidal rate of 5% or less (almost no effect)) | herbicidal effect rating, K: Italian ryegrass (Italian ryegrass [3]; 320 g/ha): 5 (Herbicidal rate of 90% or more (almost completely withered)) | herbicidal effect on O: lambsquarters (lambsquarters [4]; [30]): 4 (Herbicidal rate of 70% or more and less than 90%) | herbicidal effect rating, G: green foxtail (green foxtail [5]; 320 g/ha): 0 (Herbicidal rate of 5% or less (almost no effect)) | herbicidal effect rating, N: redroot pigweed (redroot pigweed [6]; 320 g/ha): 4 (Herbicidal rate of 70% or more and less than 90%) | herbicidal effect on G: green foxtail (green foxtail [7]; [30]): 4 (Herbicidal rate of 70% or more and less than 90%) | herbicidal effect rating, L: windgrass (windgrass [8]; 320 g/ha): 3 (Herbicidal rate of 40% or more and less than 70%) | herbicidal effect on H: barnyard grass (barnyard grass [9]; [30]): 4 (Herbicidal rate of 70% or more and less than 90%) | herbicidal effect on D (Chinese sprangletop), rating 0-5 (Chinese sprangletop): 4 (Herbicidal rate of 70% or more and less than 90%) | herbicidal effect rating, H: barnyard grass (barnyard grass [10]; 320 g/ha): 1 (Herbicidal rate of 5% or more and less than 20%) | herbicidal effect on E (rice flat sedge), rating 0-5 (rice flat sedge): 2 (Herbicidal rate of 20% or more and less than 40%) | herbicidal effect on I: wild oat (wild oat [11]; [30]): 5 (Herbicidal rate of 90% or more (almost completely withered)) | herbicidal effect rating, O: lambsquarters (lambsquarters [12]; 320 g/ha): 4 (Herbicidal rate of 70% or more and less than 90%) | herbicidal effect on L: windgrass (windgrass [13]; [30]): 5 (Herbicidal rate of 90% or more (almost completely withered)) | herbicidal effect on Q: false cleavers (false cleavers [14]; [30]): 3 (Herbicidal rate of 40% or more and less than 70%) | herbicidal effect on F: southern crabgrass (southern crabgrass [15]; [30]): 5 (Herbicidal rate of 90% or more (almost completely withered)) | herbicidal effect rating, F: southern crabgrass (southern crabgrass [16]; 320 g/ha): 3 (Herbicidal rate of 40% or more and less than 70%) | herbicidal effect on J: blackgrass (blackgrass [17]; [30]): 4 (Herbicidal rate of 70% or more and less than 90%) | herbicidal effect rating, P: chickweed (chickweed [18]; 320 g/ha): 4 (Herbicidal rate of 70% or more and less than 90%) | herbicidal effect rating, Q: false cleavers (false cleavers [19]; 320 g/ha): 2 (Herbicidal rate of 20% or more and less than 40%) | herbicidal effect rating, M: velvetleaf (velvetleaf [20]; 320 g/ha): 3 (Herbicidal rate of 40% or more and less than 70%) | herbicidal effect on K: Italian ryegrass (Italian ryegrass [21]; [30]): 5 (Herbicidal rate of 90% or more (almost completely withered)) | herbicidal effect on H (barnyard grass), rating 0-5 (barnyard grass [22]): 5 (Herbicidal rate of 90% or more (almost completely withered)) | herbicidal effect on M: velvetleaf (velvetleaf [23]; [30]): 4 (Herbicidal rate of 70% or more and less than 90%) | herbicidal effect on R: persian speedwell (persian speedwell [24]; [30]): 5 (Herbicidal rate of 90% or more (almost completely withered)) | herbicidal effect on N: redroot pigweed (redroot pigweed [25]; [30]): 5 (Herbicidal rate of 90% or more (almost completely withered)) | herbicidal effect on P: chickweed (chickweed [26]; [30]): 5 (Herbicidal rate of 90% or more (almost completely withered)) | herbicidal effect rating, R: persian speedwell (persian speedwell [27]; 320 g/ha): 4 (Herbicidal rate of 70% or more and less than 90%)
